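Where inhibition never reached the appropriate level, the endpoint shown equals the highest concentration tested. Otherwise, values were interpolated linearly from a five-concentration, 48-hour dose response in 96-well plates. GI50 = concentration required for 50% inhibition of growth. Definition used: TGI = concentration required for complete inhibition of growth.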
system: SF-295 CNS; test: inhibition of tumour cell growth, NCI panel, 48 h

First: O=C1/C(=C/c2ccc(Br)cc2)COc2ccc(O)c(O)c21
Second: O=C(Nc1nc2ccc(C(F)(F)F)cc2s1)c1cc(Cl)ccc1O
The GI50 of the first is 3.1-fold higher: 2.57 µM for the first, 0.831 µM for the second.

First: N#Cc1c(NN)n(C2OC(CO)C(O)C2O)c2ncnc(N)c12 (stereo not given)
Second: COc1cnc2c(c1)C(=O)c1c-2n(CCCNC(C)C)c(=O)c2cc(Cl)ccc12
The GI50 of the first is 6.6-fold higher: 0.344 µM for the first, 0.0523 µM for the second.

First: CCCCCCNC(=O)c1cc(NCc2cc(O)ccc2O)ccc1O
Second: Cc1ccc(C)c(C2=C(c3cn(C)c4ccccc34)C(=O)NC2=O)c1
The GI50 of the first is 4.4-fold higher: 19.4 µM for the first, 4.4 µM for the second.

COc1ccc(-n2cc(-c3cc(OC)c(OC)c(OC)c3)c(C(=O)C(F)(F)F)c2C)cc1 gave a GI50 greater than 100 µM.

Compared with O=C1/C(=C/c2ccc(Br)cc2)COc2ccc(O)c(O)c21, O=C(Nc1nc2ccc(C(F)(F)F)cc2s1)c1cc(Cl)ccc1O is 2.2-fold lower in TGI: 6.83 µM for the first, 3.16 µM for the second.

Going from N#Cc1c(NN)n(C2OC(CO)C(O)C2O)c2ncnc(N)c12 (stereo not given) to COc1cnc2c(c1)C(=O)c1c-2n(CCCNC(C)C)c(=O)c2cc(Cl)ccc12, the TGI falls from 47.8 µM to 1.43 µM (33-fold).

First: CCCCCCNC(=O)c1cc(NCc2cc(O)ccc2O)ccc1O
Second: CS(=O)(=O)Nc1ccc2c(c1)oc(=O)c1ccccc12
The TGI of the first is lower: 49.2 µM for the first, greater than 100 µM for the second.

CC(CCC=O)CCOCc1ccccc1 (stereo not given) and Cc1ccc(C)c(C2=C(c3cn(C)c4ccccc34)C(=O)NC2=O)c1 cannot be ordered by TGI: greater than 100 µM for the first, greater than 19.4 µM for the second.

Going from COc1ccc2c(c1)CCCC(Br)C2=O (stereo not given) to COc1ccc(-n2cc(-c3cc(OC)c(OC)c(OC)c3)c(C(=O)C(F)(F)F)c2C)cc1, the TGI rises from 17.2 µM to greater than 100 µM.

Work on C=C1C(=O)OC2CCN3CC=C(COC(=O)C(C)(O)C4(CO4)C1C)C23 (stereo not given) yielded a TGI greater than 100 µM.

In the case of COc1cc(N(CCC#N)CCC#N)ccc1/C(N=Nc1ccc([N+](=O)[O-])cc1)=N/NC(=O)c1cc(Br)ccc1O, the GI50 is reported as 29.9 µg/mL.

For COc1cc(N(CCC#N)CCC#N)ccc1/C(N=Nc1ccc([N+](=O)[O-])cc1)=N/NC(=O)c1cc(Br)ccc1O, the TGI was 69.6 µg/mL.

system: IGROV1 ovarian; test: inhibition of tumour cell growth, NCI panel, 48 h

O=C1/C(=C/c2ccc(Br)cc2)COc2ccc(O)c(O)c21 and O=C(Nc1nc2ccc(C(F)(F)F)cc2s1)c1cc(Cl)ccc1O are within 1.5-fold of each other in GI50: 0.631 µM for the first, 0.621 µM for the second.

Compared with N#Cc1c(NN)n(C2OC(CO)C(O)C2O)c2ncnc(N)c12 (stereo not given), COc1cnc2c(c1)C(=O)c1c-2n(CCCNC(C)C)c(=O)c2cc(Cl)ccc12 is 13-fold higher in GI50: 0.057 µM for the first, 0.756 µM for the second.

Going from CCCCCCNC(=O)c1cc(NCc2cc(O)ccc2O)ccc1O to Cc1ccc(C)c(C2=C(c3cn(C)c4ccccc34)C(=O)NC2=O)c1, the GI50 rises from 12.7 µM to 24.8 µM (2-fold).

In the case of COc1ccc(-n2cc(-c3cc(OC)c(OC)c(OC)c3)c(C(=O)C(F)(F)F)c2C)cc1, the GI50 is reported as 85.7 µM.

Going from O=C1/C(=C/c2ccc(Br)cc2)COc2ccc(O)c(O)c21 to O=C(Nc1nc2ccc(C(F)(F)F)cc2s1)c1cc(Cl)ccc1O, the TGI rises from 2.16 µM to greater than 100 µM.

Compared with N#Cc1c(NN)n(C2OC(CO)C(O)C2O)c2ncnc(N)c12 (stereo not given), COc1cnc2c(c1)C(=O)c1c-2n(CCCNC(C)C)c(=O)c2cc(Cl)ccc12 is 6.7-fold higher in TGI: 0.348 µM for the first, 2.32 µM for the second.

First: CCCCCCNC(=O)c1cc(NCc2cc(O)ccc2O)ccc1O
Second: CS(=O)(=O)Nc1ccc2c(c1)oc(=O)c1ccccc12
The TGI of the first is lower: 38.7 µM for the first, greater than 100 µM for the second.

CC(CCC=O)CCOCc1ccccc1 (stereo not given) and Cc1ccc(C)c(C2=C(c3cn(C)c4ccccc34)C(=O)NC2=O)c1 cannot be ordered by TGI: greater than 100 µM for the first, greater than 25 µM for the second.

Going from COc1ccc2c(c1)CCCC(Br)C2=O (stereo not given) to COc1ccc(-n2cc(-c3cc(OC)c(OC)c(OC)c3)c(C(=O)C(F)(F)F)c2C)cc1, the TGI rises from 4.28 µM to greater than 100 µM.

For C=C1C(=O)OC2CCN3CC=C(COC(=O)C(C)(O)C4(CO4)C1C)C23 (stereo not given), the TGI was greater than 100 µM.

Work on COc1cc(N(CCC#N)CCC#N)ccc1/C(N=Nc1ccc([N+](=O)[O-])cc1)=N/NC(=O)c1cc(Br)ccc1O yielded a GI50 of 26.6 µg/mL.

COc1cc(N(CCC#N)CCC#N)ccc1/C(N=Nc1ccc([N+](=O)[O-])cc1)=N/NC(=O)c1cc(Br)ccc1O showed a TGI of 121 µg/mL.

system: DU-145 prostate; test: inhibition of tumour cell growth, NCI panel, 48 h

O=C1/C(=C/c2ccc(Br)cc2)COc2ccc(O)c(O)c21 and O=C(Nc1nc2ccc(C(F)(F)F)cc2s1)c1cc(Cl)ccc1O are within 1.5-fold of each other in GI50: 1.31 µM for the first, 1.59 µM for the second.

Compared with N#Cc1c(NN)n(C2OC(CO)C(O)C2O)c2ncnc(N)c12 (stereo not given), COc1cnc2c(c1)C(=O)c1c-2n(CCCNC(C)C)c(=O)c2cc(Cl)ccc12 is 4.6-fold higher in GI50: 0.0375 µM for the first, 0.173 µM for the second.

Compared with CCCCCCNC(=O)c1cc(NCc2cc(O)ccc2O)ccc1O, Cc1ccc(C)c(C2=C(c3cn(C)c4ccccc34)C(=O)NC2=O)c1 is higher in GI50: 15.2 µM for the first, greater than 20.2 µM for the second.

COc1ccc(-n2cc(-c3cc(OC)c(OC)c(OC)c3)c(C(=O)C(F)(F)F)c2C)cc1 was tested, and the GI50 was greater than 100 µM.

First: O=C1/C(=C/c2ccc(Br)cc2)COc2ccc(O)c(O)c21
Second: O=C(Nc1nc2ccc(C(F)(F)F)cc2s1)c1cc(Cl)ccc1O
The TGI of the first is lower: 2.9 µM for the first, greater than 100 µM for the second.

Compared with N#Cc1c(NN)n(C2OC(CO)C(O)C2O)c2ncnc(N)c12 (stereo not given), COc1cnc2c(c1)C(=O)c1c-2n(CCCNC(C)C)c(=O)c2cc(Cl)ccc12 is 3-fold lower in TGI: 6.26 µM for the first, 2.06 µM for the second.

First: CCCCCCNC(=O)c1cc(NCc2cc(O)ccc2O)ccc1O
Second: CS(=O)(=O)Nc1ccc2c(c1)oc(=O)c1ccccc12
The TGI of the first is lower: 28.8 µM for the first, greater than 100 µM for the second.

CC(CCC=O)CCOCc1ccccc1 (stereo not given) and Cc1ccc(C)c(C2=C(c3cn(C)c4ccccc34)C(=O)NC2=O)c1 cannot be ordered by TGI: greater than 100 µM for the first, greater than 25 µM for the second.

Going from COc1ccc2c(c1)CCCC(Br)C2=O (stereo not given) to COc1ccc(-n2cc(-c3cc(OC)c(OC)c(OC)c3)c(C(=O)C(F)(F)F)c2C)cc1, the TGI rises from 44.9 µM to greater than 100 µM.

Compound C=C1C(=O)OC2CCN3CC=C(COC(=O)C(C)(O)C4(CO4)C1C)C23 (stereo not given) has a TGI greater than 100 µM.

COc1cc(N(CCC#N)CCC#N)ccc1/C(N=Nc1ccc([N+](=O)[O-])cc1)=N/NC(=O)c1cc(Br)ccc1O showed a GI50 of 30.3 µg/mL.

COc1cc(N(CCC#N)CCC#N)ccc1/C(N=Nc1ccc([N+](=O)[O-])cc1)=N/NC(=O)c1cc(Br)ccc1O was tested, and the TGI was 70.9 µg/mL.

system: MDA-MB-231 breast; test: inhibition of tumour cell growth, NCI panel, 48 h

O=C1/C(=C/c2ccc(Br)cc2)COc2ccc(O)c(O)c21 and O=C(Nc1nc2ccc(C(F)(F)F)cc2s1)c1cc(Cl)ccc1O are within 1.5-fold of each other in GI50: 0.682 µM for the first, 0.704 µM for the second.

First: N#Cc1c(NN)n(C2OC(CO)C(O)C2O)c2ncnc(N)c12 (stereo not given)
Second: COc1cnc2c(c1)C(=O)c1c-2n(CCCNC(C)C)c(=O)c2cc(Cl)ccc12
The GI50 of the first is 4.9-fold lower: 0.284 µM for the first, 1.39 µM for the second.

Compared with CCCCCCNC(=O)c1cc(NCc2cc(O)ccc2O)ccc1O, Cc1ccc(C)c(C2=C(c3cn(C)c4ccccc34)C(=O)NC2=O)c1 is higher in GI50: 2.78 µM for the first, greater than 25 µM for the second.

Compound COc1ccc(-n2cc(-c3cc(OC)c(OC)c(OC)c3)c(C(=O)C(F)(F)F)c2C)cc1 has a GI50 greater than 100 µM.

Compared with O=C1/C(=C/c2ccc(Br)cc2)COc2ccc(O)c(O)c21, O=C(Nc1nc2ccc(C(F)(F)F)cc2s1)c1cc(Cl)ccc1O is 1.7-fold higher in TGI: 2.27 µM for the first, 3.75 µM for the second.

Compared with N#Cc1c(NN)n(C2OC(CO)C(O)C2O)c2ncnc(N)c12 (stereo not given), COc1cnc2c(c1)C(=O)c1c-2n(CCCNC(C)C)c(=O)c2cc(Cl)ccc12 is lower in TGI: greater than 24.1 µM for the first, 3.18 µM for the second.

Compared with CCCCCCNC(=O)c1cc(NCc2cc(O)ccc2O)ccc1O, CS(=O)(=O)Nc1ccc2c(c1)oc(=O)c1ccccc12 is higher in TGI: 10.4 µM for the first, greater than 100 µM for the second.

CC(CCC=O)CCOCc1ccccc1 (stereo not given) and Cc1ccc(C)c(C2=C(c3cn(C)c4ccccc34)C(=O)NC2=O)c1 cannot be ordered by TGI: greater than 100 µM for the first, greater than 25 µM for the second.

Compared with COc1ccc2c(c1)CCCC(Br)C2=O (stereo not given), COc1ccc(-n2cc(-c3cc(OC)c(OC)c(OC)c3)c(C(=O)C(F)(F)F)c2C)cc1 is higher in TGI: 10.9 µM for the first, greater than 100 µM for the second.

C=C1C(=O)OC2CCN3CC=C(COC(=O)C(C)(O)C4(CO4)C1C)C23 (stereo not given) was tested, and the TGI was greater than 100 µM.

COc1cc(N(CCC#N)CCC#N)ccc1/C(N=Nc1ccc([N+](=O)[O-])cc1)=N/NC(=O)c1cc(Br)ccc1O gave a GI50 of 35.7 µg/mL.

COc1cc(N(CCC#N)CCC#N)ccc1/C(N=Nc1ccc([N+](=O)[O-])cc1)=N/NC(=O)c1cc(Br)ccc1O gave a TGI of 85.2 µg/mL.

system: A549 NSCLC; test: inhibition of tumour cell growth, NCI panel, 48 h

O=C1/C(=C/c2ccc(Br)cc2)COc2ccc(O)c(O)c21 and O=C(Nc1nc2ccc(C(F)(F)F)cc2s1)c1cc(Cl)ccc1O are within 1.5-fold of each other in GI50: 1.77 µM for the first, 1.51 µM for the second.

Compared with N#Cc1c(NN)n(C2OC(CO)C(O)C2O)c2ncnc(N)c12 (stereo not given), COc1cnc2c(c1)C(=O)c1c-2n(CCCNC(C)C)c(=O)c2cc(Cl)ccc12 is 2.6-fold higher in GI50: 0.0353 µM for the first, 0.0902 µM for the second.

CCCCCCNC(=O)c1cc(NCc2cc(O)ccc2O)ccc1O and Cc1ccc(C)c(C2=C(c3cn(C)c4ccccc34)C(=O)NC2=O)c1 are within 1.5-fold of each other in GI50: 23.5 µM for the first, 18.9 µM for the second.

Work on COc1ccc(-n2cc(-c3cc(OC)c(OC)c(OC)c3)c(C(=O)C(F)(F)F)c2C)cc1 yielded a GI50 of 28 µM.

Going from O=C1/C(=C/c2ccc(Br)cc2)COc2ccc(O)c(O)c21 to O=C(Nc1nc2ccc(C(F)(F)F)cc2s1)c1cc(Cl)ccc1O, the TGI rises from 6.77 µM to greater than 100 µM.

Going from N#Cc1c(NN)n(C2OC(CO)C(O)C2O)c2ncnc(N)c12 (stereo not given) to COc1cnc2c(c1)C(=O)c1c-2n(CCCNC(C)C)c(=O)c2cc(Cl)ccc12, the TGI falls from greater than 100 µM to 2.07 µM.

First: CCCCCCNC(=O)c1cc(NCc2cc(O)ccc2O)ccc1O
Second: CS(=O)(=O)Nc1ccc2c(c1)oc(=O)c1ccccc12
The TGI of the first is lower: 71.5 µM for the first, greater than 100 µM for the second.

CC(CCC=O)CCOCc1ccccc1 (stereo not given) and Cc1ccc(C)c(C2=C(c3cn(C)c4ccccc34)C(=O)NC2=O)c1 cannot be ordered by TGI: greater than 100 µM for the first, greater than 25 µM for the second.

COc1ccc2c(c1)CCCC(Br)C2=O (stereo not given) and COc1ccc(-n2cc(-c3cc(OC)c(OC)c(OC)c3)c(C(=O)C(F)(F)F)c2C)cc1 cannot be ordered by TGI: greater than 43.6 µM for the first, greater than 100 µM for the second.

C=C1C(=O)OC2CCN3CC=C(COC(=O)C(C)(O)C4(CO4)C1C)C23 (stereo not given) was tested, and the TGI was greater than 100 µM.

With COc1cc(N(CCC#N)CCC#N)ccc1/C(N=Nc1ccc([N+](=O)[O-])cc1)=N/NC(=O)c1cc(Br)ccc1O the GI50 was 44.4 µg/mL.

With COc1cc(N(CCC#N)CCC#N)ccc1/C(N=Nc1ccc([N+](=O)[O-])cc1)=N/NC(=O)c1cc(Br)ccc1O the TGI was 140 µg/mL.

— PubChem BioAssay (NCI)
